Assay: DPPH radical scavenging antioxidant test
Assay type: biochemical
Settings: 517 nm; for Inhibition (radical scavenging inhibition): 0.2 mL DPPH (0.75 mM), compound 3 μM in ethanol, 30 min incubation in the dark
Method: The antioxidant properties of the 4,4′-naphthalene-1,5-diylbis(diazene-2,1-diyl)dinaphthalen-1-ol were studied by adding 0.2 mL DPPH (0.75 mM)) to compound 4,4′-naphthalene-1,5-diylbis(diazene-2,1-diyl)dinaphthalen-1-01 (III) (3 μM) in ethanol. After 30 min of incubation in the dark, the absorbance was read against a blank at 517 nm. Ascorbic acid (vitamin C) was used as standard antioxidants (positive control). A blank sample was prepared by 0.2 ml of DPPH in 3 ml ethanol. A negative control sample was run using ethanol instead of the sample. The radical scavenging inhibition was calculated using the following equation: […]

Oc1ccc(N=Nc2cccc3c(N=Nc4ccc(O)c5ccccc45)cccc23)c2ccccc12 [Product III, 4,4′-naphthalene-1,5-diylbis(diazene-2,1-diyl)dinaphthalen-1-ol]
Inhibition (radical scavenging inhibition): 54% | antioxidant potential compared to vitamin C (in words) (DPPH in vitro test, vitamin C as positive control): high potential as an antioxidant compared to vitamin C

O=C1O[C@H]([C@@H](O)CO)C(O)=C1O [vit c, Ascorbic acid, reference compound]
Inhibition (radical scavenging inhibition): 74%
